{"source": "ChEMBL document CHEMBL5316298", "about": "“Discovery of Amphiphilic Xanthohumol Derivatives as Membrane-Targeting Antimicrobials against Methicillin-Resistant Staphylococcus aureus” (J Med Chem, 2023)", "key": {"[1]": {"experiment": "Toxicity in KM mouse infected with methicillin-resistant Staphylococcus aureus 3 assessed as heart damage at 5 to 10 mg/kg administered into skin infection site measured after 24 hrs by H and E staining based analysis", "type": "organism-based", "settings": "in vivo, topical_or_ocular, dose 5-10 mg/kg"}, "Staphylococcus aureus [2]": {"test_system": "Staphylococcus aureus", "experiment": "Antibacterial activity against methicillin-resistant Staphylococcus aureus 3 infected in KM mouse assessed as reduction in size of abscesses at 5 mg/kg administered into skin infection site measured after 24 hrs", "type": "functional, organism-based"}, "Staphylococcus aureus [3]": {"test_system": "Staphylococcus aureus", "experiment": "Antibacterial activity against methicillin-resistant Staphylococcus aureus clinical isolate 7 incubated for 16 to 18 hrs by CLSI-based microbroth dilution method", "type": "functional", "settings": "time 16-18 hrs"}, "[4]": {"experiment": "Toxicity in KM mouse infected with methicillin-resistant Staphylococcus aureus 3 assessed as lung damage at 5 to 10 mg/kg administered into skin infection site measured after 24 hrs by H and E staining based analysis", "type": "organism-based", "settings": "in vivo, topical_or_ocular, dose 5-10 mg/kg"}, "Staphylococcus aureus [5]": {"test_system": "Staphylococcus aureus", "experiment": "Antibacterial activity against methicillin-resistant Staphylococcus aureus clinical isolate 4 incubated for 16 to 18 hrs by CLSI-based microbroth dilution method", "type": "functional", "settings": "time 16-18 hrs"}}, "note": "Active and inactive are the calls of the source. No cut-off for these calls is given here.", "data": [{"smiles": "CCCN(CCC)C(=O)C[N+](C)(C)CCCCOc1ccc(/C=C/C(=O)c2c(OC)cc3c(c2O)C=CC(C)(C)O3)cc1.[Br-]", "values": [{"measurement": "Activity", "setting": "[1]", "result": "Non-Toxic"}, {"measurement": "Activity", "setting": "Staphylococcus aureus [2]", "result": "Active"}, {"measurement": "MIC", "setting": "Staphylococcus aureus [3]", "result": 2, "unit": "µg/mL"}, {"measurement": "Activity", "setting": "[4]", "result": "Non-Toxic"}, {"measurement": "MIC", "setting": "Staphylococcus aureus [5]", "result": 2, "unit": "µg/mL"}]}]}
